The values below are quoted from earlier work in PMC9080292, “Correction: Rational design of a peptide capture agent for CXCL8 based on a model of the CXCL8:CXCR1 complex” (RSC Advances, 2018).

The conditions of data set [1]: synthesized peptide, result in words; ref Helmer et al., RSC Adv., 2015, 5, 25657–25668; cited from earlier work.
The target in the next data set is T1, CXCL8 (Homo sapiens, UniProt P10145).
T1 sequence (P10145 21-99): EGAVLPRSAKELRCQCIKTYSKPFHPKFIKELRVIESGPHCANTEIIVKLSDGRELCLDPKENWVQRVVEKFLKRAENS
The conditions noted are these: original publication; fluorescence anisotropy; now attributed to the peptide ending with glutamic acid; ref Helmer et al., RSC Adv., 2015, 5, 25657–25668; read-out: affinity (reported high affinity); cited from earlier work. As to the method: This was confirmed by high resolution mass spectrometry. […] We conclude that all experiments were performed with the peptid ...

Square brackets hold non-standard residues; d marks the D form. Ends that are not written are not given here. Ahx = NCCCCCC(=O)O

With “AKWRMVLRI[Ahx]ADTLMRTE [IL8-RP-Loops, IL8 capture peptide; actually synthesized peptide with C-terminal glutamic acid]”, the “structure by CD-spectroscopy” value in data set [1] is given as “a helical structure”. Regarding “AKWRMVLRI–Ahx–ADTLMRTE (AKWRMVLRI[Ahx]ADTLMRTE) [IL8-RP-Loops, IL8 capture peptide; actually synthesized peptide with C-terminal glutamic acid]”, the Kd with CXCL8 was 500 ± 300 nM.
